This note sets out measurements from PMC8306566 (Marine Drugs, 2021).

Targets include rα4β2 nAChR (Rattus norvegicus, UniProt P09483+P12390); rα2β4 nAChR (Rattus norvegicus, UniProt P12389+P12392); rα7 nAChR (Rattus norvegicus, UniProt Q05941); rα3β2 nAChR (Rattus norvegicus, UniProt P04757+P12390); rα2β2 nAChR (Rattus norvegicus, UniProt P12389+P12390); rα4β4 nAChR (Rattus norvegicus, UniProt P09483+P12392); rα6/α3β4 nAChR (Rattus norvegicus, UniProt P04757+P12392+P43143); rα9α10 nAChR (Rattus norvegicus, UniProt P43144+Q9JLB5); rα6/α3β2β3 nAChR (Rattus norvegicus, UniProt P04757+P12390+P12391+P43143).

Assay in all cases: cell-based
For another assay, the target named is rα3β4 nAChR (Rattus norvegicus, UniProt P04757+P12392). The format is cell-based.
Sequence of rα3β4 nAChR (P04757 26-499 limits assumed): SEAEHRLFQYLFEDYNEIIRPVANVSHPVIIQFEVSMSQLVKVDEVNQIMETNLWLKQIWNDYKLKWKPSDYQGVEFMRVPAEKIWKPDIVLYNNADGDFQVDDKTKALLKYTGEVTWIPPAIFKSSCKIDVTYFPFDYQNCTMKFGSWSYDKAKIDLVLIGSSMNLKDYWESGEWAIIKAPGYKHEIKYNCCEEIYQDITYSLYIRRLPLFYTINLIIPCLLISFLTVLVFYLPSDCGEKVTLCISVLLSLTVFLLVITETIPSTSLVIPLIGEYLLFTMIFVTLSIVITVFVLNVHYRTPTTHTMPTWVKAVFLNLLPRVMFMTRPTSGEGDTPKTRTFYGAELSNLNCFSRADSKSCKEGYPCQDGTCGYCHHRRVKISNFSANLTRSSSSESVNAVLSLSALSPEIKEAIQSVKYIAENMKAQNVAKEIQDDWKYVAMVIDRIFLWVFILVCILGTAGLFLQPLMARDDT
Sequence of rα3β4 nAChR (P12392 21-495 limits assumed): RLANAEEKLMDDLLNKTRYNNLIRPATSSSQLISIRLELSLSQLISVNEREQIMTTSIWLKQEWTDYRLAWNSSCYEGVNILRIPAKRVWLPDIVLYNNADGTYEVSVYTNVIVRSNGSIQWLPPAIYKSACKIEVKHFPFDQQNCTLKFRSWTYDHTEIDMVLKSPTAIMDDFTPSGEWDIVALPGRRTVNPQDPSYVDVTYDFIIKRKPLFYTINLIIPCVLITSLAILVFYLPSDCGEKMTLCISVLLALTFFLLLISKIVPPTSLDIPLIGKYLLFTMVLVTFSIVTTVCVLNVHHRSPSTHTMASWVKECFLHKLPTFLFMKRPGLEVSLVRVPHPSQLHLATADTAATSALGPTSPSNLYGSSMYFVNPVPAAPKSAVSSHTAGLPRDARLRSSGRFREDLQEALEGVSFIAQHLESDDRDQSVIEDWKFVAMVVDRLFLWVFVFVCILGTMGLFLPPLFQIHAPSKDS

Structures are written as SMILES.

Sequence of rα3β2 nAChR (P04757 26-499 limits assumed): as the sequence (P04757 26-499 limits assumed) above
Sequence of rα3β2 nAChR (P12390 25-500 limits assumed): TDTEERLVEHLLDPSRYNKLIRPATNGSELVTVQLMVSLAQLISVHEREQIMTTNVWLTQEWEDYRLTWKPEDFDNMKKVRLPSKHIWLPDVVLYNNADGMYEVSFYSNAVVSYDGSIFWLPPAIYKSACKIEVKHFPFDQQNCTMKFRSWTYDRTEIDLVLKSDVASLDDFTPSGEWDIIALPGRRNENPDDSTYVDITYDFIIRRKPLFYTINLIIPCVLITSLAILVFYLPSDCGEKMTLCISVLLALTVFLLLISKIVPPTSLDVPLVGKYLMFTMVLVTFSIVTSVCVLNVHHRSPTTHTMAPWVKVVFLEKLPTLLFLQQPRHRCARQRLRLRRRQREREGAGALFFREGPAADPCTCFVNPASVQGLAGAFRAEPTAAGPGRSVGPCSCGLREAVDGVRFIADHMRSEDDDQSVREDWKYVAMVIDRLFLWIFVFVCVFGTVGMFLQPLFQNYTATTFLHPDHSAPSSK
Sequence of rα6/α3β2β3 nAChR (P04757 whole entry, looked up): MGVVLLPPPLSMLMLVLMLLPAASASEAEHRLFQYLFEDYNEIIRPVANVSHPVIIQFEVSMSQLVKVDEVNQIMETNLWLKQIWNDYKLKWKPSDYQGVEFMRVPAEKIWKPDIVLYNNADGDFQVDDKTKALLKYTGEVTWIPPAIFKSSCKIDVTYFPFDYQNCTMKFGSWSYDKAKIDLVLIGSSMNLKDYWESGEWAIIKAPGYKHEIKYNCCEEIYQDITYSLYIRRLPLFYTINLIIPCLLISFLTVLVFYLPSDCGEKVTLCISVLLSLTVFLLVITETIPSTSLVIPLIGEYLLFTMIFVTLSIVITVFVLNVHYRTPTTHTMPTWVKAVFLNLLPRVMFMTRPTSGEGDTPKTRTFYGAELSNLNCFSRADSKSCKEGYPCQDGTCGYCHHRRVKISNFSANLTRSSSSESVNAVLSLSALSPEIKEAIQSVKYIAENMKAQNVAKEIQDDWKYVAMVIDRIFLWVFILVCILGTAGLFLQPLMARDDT
Sequence of rα6/α3β2β3 nAChR (P12390 whole entry, looked up): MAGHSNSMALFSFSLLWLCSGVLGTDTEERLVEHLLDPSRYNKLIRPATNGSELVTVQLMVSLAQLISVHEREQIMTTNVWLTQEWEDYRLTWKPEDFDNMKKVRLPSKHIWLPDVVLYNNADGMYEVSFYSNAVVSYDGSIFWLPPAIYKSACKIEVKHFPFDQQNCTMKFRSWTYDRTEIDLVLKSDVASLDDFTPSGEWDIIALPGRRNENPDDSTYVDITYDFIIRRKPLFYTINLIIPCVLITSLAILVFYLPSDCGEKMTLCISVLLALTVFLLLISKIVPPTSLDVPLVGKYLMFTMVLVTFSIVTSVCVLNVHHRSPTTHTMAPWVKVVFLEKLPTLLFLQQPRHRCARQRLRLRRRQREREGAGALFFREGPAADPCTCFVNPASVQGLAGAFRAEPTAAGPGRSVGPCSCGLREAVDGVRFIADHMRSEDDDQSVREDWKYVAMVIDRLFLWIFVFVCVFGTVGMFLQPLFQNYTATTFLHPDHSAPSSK
Sequence of rα6/α3β2β3 nAChR (P12391 whole entry, looked up): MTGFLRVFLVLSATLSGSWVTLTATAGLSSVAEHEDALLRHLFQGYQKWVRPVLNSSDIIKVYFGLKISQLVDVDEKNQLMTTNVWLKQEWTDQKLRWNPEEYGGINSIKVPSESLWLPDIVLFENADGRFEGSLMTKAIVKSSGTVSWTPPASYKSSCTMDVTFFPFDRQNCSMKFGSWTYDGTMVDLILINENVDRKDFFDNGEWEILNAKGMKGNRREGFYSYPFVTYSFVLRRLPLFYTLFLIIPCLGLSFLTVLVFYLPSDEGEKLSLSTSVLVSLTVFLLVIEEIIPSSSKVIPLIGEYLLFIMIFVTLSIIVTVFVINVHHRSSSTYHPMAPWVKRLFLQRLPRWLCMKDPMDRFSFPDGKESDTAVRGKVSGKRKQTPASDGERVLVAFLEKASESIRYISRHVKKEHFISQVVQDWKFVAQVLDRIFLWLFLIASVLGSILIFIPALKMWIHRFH
Sequence of rα6/α3β2β3 nAChR (P43143 whole entry, looked up): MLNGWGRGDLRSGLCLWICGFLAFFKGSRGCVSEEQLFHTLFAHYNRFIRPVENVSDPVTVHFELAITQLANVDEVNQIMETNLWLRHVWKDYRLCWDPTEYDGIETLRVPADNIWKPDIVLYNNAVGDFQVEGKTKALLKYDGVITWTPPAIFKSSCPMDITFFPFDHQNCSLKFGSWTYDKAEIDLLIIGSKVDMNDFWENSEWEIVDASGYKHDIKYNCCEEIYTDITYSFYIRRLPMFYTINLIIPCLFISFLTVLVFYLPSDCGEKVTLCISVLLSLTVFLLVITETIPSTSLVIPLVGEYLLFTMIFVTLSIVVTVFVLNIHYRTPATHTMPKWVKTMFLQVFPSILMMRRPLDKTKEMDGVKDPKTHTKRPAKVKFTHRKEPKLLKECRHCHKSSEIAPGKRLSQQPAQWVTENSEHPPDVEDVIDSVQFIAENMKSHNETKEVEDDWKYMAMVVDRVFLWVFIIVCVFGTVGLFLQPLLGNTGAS
Sequence of rα4β2 nAChR (P09483 31-630 limits assumed): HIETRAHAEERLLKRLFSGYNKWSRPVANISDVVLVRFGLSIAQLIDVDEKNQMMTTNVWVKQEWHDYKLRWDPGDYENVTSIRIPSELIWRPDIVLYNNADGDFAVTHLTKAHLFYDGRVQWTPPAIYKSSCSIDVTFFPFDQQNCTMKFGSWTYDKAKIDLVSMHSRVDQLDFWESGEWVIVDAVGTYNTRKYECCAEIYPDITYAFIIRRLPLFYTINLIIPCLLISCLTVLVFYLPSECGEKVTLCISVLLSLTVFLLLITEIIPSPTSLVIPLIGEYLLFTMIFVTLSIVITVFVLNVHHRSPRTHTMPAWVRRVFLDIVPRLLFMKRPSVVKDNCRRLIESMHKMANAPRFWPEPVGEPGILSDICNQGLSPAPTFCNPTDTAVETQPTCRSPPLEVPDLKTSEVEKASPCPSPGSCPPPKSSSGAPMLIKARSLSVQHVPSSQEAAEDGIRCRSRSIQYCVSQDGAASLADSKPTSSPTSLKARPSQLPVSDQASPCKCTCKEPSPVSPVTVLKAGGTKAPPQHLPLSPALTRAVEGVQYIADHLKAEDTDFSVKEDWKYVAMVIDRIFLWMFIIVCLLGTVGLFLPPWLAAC
Sequence of rα4β2 nAChR (P12390 25-500 limits assumed): as the sequence (P12390 25-500 limits assumed) above
Sequence of rα4β4 nAChR (P09483 31-630 limits assumed): as the sequence (P09483 31-630 limits assumed) above
Sequence of rα4β4 nAChR (P12392 21-495 limits assumed): as the sequence (P12392 21-495 limits assumed) above
Sequence of rα2β2 nAChR (P12389 28-511 limits assumed): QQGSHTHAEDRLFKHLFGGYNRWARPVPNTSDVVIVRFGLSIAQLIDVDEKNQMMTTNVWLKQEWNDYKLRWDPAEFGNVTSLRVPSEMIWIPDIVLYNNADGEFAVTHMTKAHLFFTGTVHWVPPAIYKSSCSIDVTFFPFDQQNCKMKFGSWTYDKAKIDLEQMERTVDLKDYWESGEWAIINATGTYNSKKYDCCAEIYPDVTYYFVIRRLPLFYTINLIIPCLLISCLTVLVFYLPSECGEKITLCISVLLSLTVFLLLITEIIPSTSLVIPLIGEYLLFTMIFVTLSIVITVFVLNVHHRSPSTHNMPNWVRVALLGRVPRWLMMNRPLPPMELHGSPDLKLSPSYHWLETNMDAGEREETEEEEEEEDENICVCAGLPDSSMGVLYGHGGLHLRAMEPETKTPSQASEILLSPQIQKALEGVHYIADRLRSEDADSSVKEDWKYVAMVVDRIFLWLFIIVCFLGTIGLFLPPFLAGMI
Sequence of rα2β2 nAChR (P12390 25-500 limits assumed): as the sequence (P12390 25-500 limits assumed) above
Sequence of rα2β4 nAChR (P12389 28-511 limits assumed): as the sequence (P12389 28-511 limits assumed) above
Sequence of rα2β4 nAChR (P12392 21-495 limits assumed): as the sequence (P12392 21-495 limits assumed) above

`CC[C@H](C)[C@@H]1NC(=O)[C@H](CC(=O)O)NC(=O)[C@H](CCC(N)=O)NC(=O)[C@H](CC(N)=O)NC(=O)[C@H](CC(N)=O)NC(=O)CNC(=O)[C@H](C)NC(=O)[C@@H]2CSSC[C@H](NC(=O)CN)C(=O)N[C@@H](CSSC[C@@H](C(N)=O)NC1=O)C(=O)N[C@@H](CO)C(=O)N[C@@H](Cc1c[nH]cn1)C(=O)N1CCC[C@H]1C(=O)N[C@@H](C)C(=O)N2` [LvIF]: the IC50 at rα4β2 nAChR was greater than 10 µM; against rα2β4 nAChR, greater than 10 µM; against rα7 nAChR, greater than 10 µM; against rα3β2 nAChR it was 0.00898 µM; at rα3β4 nAChR it was greater than 10 µM; against rα2β2 nAChR it was greater than 10 µM. Further, the IC50 against rα4β4 nAChR is greater than 10 µM; on rα6/α3β4 nAChR, greater than 10 µM; at rα9α10 nAChR it was greater than 10 µM; against rα6/α3β2β3 nAChR it was 0.0144 µM. The inhibition at 10 µM at rα4β2 nAChR (read-out: inhibition at 10 μM) turned out to be 4.6 ± 2.5%; at rα2β4 nAChR (read-out: inhibition at 10 μM), 9.5 ± 2.4%; on rα7 nAChR (read-out: inhibition at 10 μM), 12.3 ± 4.2%; on rα3β2 nAChR (read-out: inhibition at 10 μM) it was 98.3 ± 0.6%; at rα2β2 nAChR (read-out: inhibition at 10 μM), 6.7 ± 4.5%; at rα4β4 nAChR (read-out: inhibition at 10 μM) it was 8.6 ± 4.2%. Moreover, the inhibition at 10 µM at rα6/α3β4 nAChR (read-out: inhibition at 10 μM) worked out at 2.3 ± 3.3%; at rα9α10 nAChR (read-out: inhibition at 10 μM), 1.31 ± 5.2%; at rα6/α3β2β3 nAChR (read-out: inhibition at 10 μM), 98.3 ± 0.3%. The results for the inhibition at 0.01 µM at rα3β2 nAChR (read-out: inhibition at 10 nM) and at rα6/α3β2β3 nAChR (read-out: inhibition at 10 nM) were roughly 57% and roughly 39%, respectively. Besides, the “inhibition at 1 μM” value at rα3β4 nAChR is given as “no inhibition”.
